US20250136607A1 (REGOR PHARMACEUTICALS, INC., priority 2021, published 2025)
pIC50: −log10 of the molar value. Read-outs that look alike come from different tables or passages of the source.

Target: Protein arginine deiminase 4 (PAD4) (Homo sapiens, UniProt Q9UM07)
Test: PAD4 ammonia release assay
Type: biochemical
Method: 1) Compound preparation: The compounds were diluted to 80× final concentrations. 2) The compounds were transferred to a 384-well assay plate by Tecan. DMSO: 1.25%. 3) Preparation of 1×Assay buffer: 100 mM HEPES, PH=8.0, 2 mM CaCl2, 50 mM NaCl, 0.1 mM TCEP, 0.6 mg/ml BSA. 4) 2× enzyme working solution (PAD4:20 nM) was prepared with assay buffer, and 10 μL of the obtained working solution were added to the 384-well assay plates. 5) The plate was centrifuged at 1000 rpm for 1 min. 6) After the centrifuge, the plate was incubated at RT for 15 min. 7) 2×BAEE substrate mix (600 μM) was prepared with assay buffer and 10 μL of the obtained substrate mix were added to each well. 8) The plate was centrifuged at 1000 rpm for 1 min and then incubated at RT for 60 min. 9) 1.5× detection mix (DTT:4 mM, OPA:3 mM, EDTA: 30 mM) was prepared, and 10 μL of the mix were added to the plate. 10) The plate was centrifuged at 1000 rpm for 1 min and then incubated at RT for 120 min. 11) The 384-well plates were placed into the Envision (PerkinElmer) and the assay data were collected.
The percent (%) inhibition at each concentration of compound was calculated based on and relative to the signal in the HPE (50 μM ref. compound) and ZPE (1.25% DMSO) wells included within each assay plate. The HPE worked as 100% inhibition, and the ZPE worked as 0% inhibition. The concentrations and % inhibition values for tested compounds were plotted and the concentration of compound required for 50% inhibition (IC50) was determined with a Four-parameter logistic dose response equation. The endpoint value (IC50) for the reference compound was evaluated in each experiment as a quality control measure. If the endpoint value is within 3-fold of the expected value, then the experiment quality is deemed as acceptable. The results are provided in Table 1 below. ≤0.1 μM=“++++”; >0.1 and ≤0.5 μM=“+++”; >0.5 and ≤5.0 μM=“++”; >5.0 μM=“+”. “−”=not available.

[1] = PAD4 ammonia release assay, BAEE substrate, 60 min at RT, read-out: Average IC50 Abs

Sequence of Protein arginine deiminase 4 (PAD4) (Q9UM07 whole entry): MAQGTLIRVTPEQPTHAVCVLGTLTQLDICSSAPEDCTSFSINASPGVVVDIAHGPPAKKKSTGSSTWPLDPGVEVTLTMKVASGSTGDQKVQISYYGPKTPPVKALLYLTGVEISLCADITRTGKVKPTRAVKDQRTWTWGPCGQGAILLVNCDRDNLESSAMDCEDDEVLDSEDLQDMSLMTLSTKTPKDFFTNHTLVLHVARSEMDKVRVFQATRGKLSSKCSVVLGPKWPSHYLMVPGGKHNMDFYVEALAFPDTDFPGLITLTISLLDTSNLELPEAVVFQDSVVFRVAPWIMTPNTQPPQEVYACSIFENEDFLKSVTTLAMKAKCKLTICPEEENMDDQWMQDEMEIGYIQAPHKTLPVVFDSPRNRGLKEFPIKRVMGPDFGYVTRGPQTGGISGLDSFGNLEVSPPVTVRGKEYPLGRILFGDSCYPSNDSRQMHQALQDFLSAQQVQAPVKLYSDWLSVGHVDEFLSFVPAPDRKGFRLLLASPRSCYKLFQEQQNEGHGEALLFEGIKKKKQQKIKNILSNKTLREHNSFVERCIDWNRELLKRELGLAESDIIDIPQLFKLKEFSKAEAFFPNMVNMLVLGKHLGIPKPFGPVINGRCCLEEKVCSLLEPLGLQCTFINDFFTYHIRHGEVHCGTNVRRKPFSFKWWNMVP

SMILES	pIC50 (PAD4 activity comparison, read-out: PAD4 Ammonia assay IC50)	pIC50 [1]
COc1cc(C(=O)N2CCC[C@](C)(N)C2)cc2nc(-c3cc4cccc5c4n3CCN5CCCO)n(C)c12 [Example 19, (S)-(3-amino-3-methylpiperidin-1-yl)(2-(1-(3-hydroxypropyl)-2,3-dihydro-1H-pyrrolo[1,2,3-de]quinoxalin-5-yl)-7-methoxy-1-methyl-1H-benzo[d]imidazol-5-yl)methanone]		< 5.30
COc1cc(C(=O)N2C[C@H](N)C[C@@H](F)C2)cc2nc(-c3cc4cccc5c4n3CCN5CCCO)n(CC(F)F)c12 [Example 51, ((3R,5R)-3-amino-5-fluoropiperidin-1-yl)(1-(2,2-difluoroethyl)-2-(1-(3-hydroxypropyl)-2,3-dihydro-1H-pyrrolo[1,2,3-de]quinoxalin-5-yl)-7-methoxy-1H-benzo[d]imidazol-5-yl)methanone]		6.30 to 7.00
CCC1CN(CCCO)c2cccc3cc(-c4nc5cc(C(=O)N6C[C@H]7CC[C@@H]6[C@@H]7N)cc(F)c5n4CC4CC4)n1c23 (stereo partly drawn) [Example 77, ((1R,4R,7R)-7-amino-2-azabicyclo[2.2.1]heptan-2-yl)(1-(cyclopropylmethyl)-2-(3-ethyl-1-(3-hydroxypropyl)-2,3-dihydro-1H-pyrrolo[1,2,3-de]quinoxalin-5-yl)-7-fluoro-1H-benzo[d]imidazol-5-yl)methanone]		6.30 to 7.00
C#CCn1c(-c2cc3cccc4c3n2C(CC)CN4CCCO)nc2cc(C(=O)N3C[C@H]4CC[C@@H]3[C@@H]4N)cc(OC)c21 (stereo partly drawn) [Example 90, ((1R,4R,7R)-7-amino-2-azabicyclo[2.2.1]heptan-2-yl)(2-(3-ethyl-1-(3-hydroxypropyl)-2,3-dihydro-1H-pyrrolo[1,2,3-de]quinoxalin-5-yl)-7-methoxy-1-(prop-2-yn-1-yl)-1H-benzo[d]imidazol-5-yl)methanone]		6.30 to 7.00
CCC1CN(CCCO)c2cccc3cc(-c4nc5cc(C(=O)N6C[C@H]7CC[C@@H]6[C@@H]7N)cc(F)c5n4Cc4ccco4)n1c23 (stereo partly drawn) [Example 93, ((1R,4R,7R)-7-amino-2-azabicyclo[2.2.1]heptan-2-yl)(2-(3-ethyl-1-(3-hydroxypropyl)-2,3-dihydro-1H-pyrrolo[1,2,3-de]quinoxalin-5-yl)-7-fluoro-1-(furan-2-ylmethyl)-1H-benzo[d]imidazol-5-yl)methanone]		6.30 to 7.00
COc1cc(C(=O)N2CC[C@H](F)[C@H](N)C2)cc2nc(-c3cc4cccc5c4n3CCN5CCCO)n(CC3CC3)c12 [Example 58, ((3R,4S)-3-amino-4-fluoropiperidin-1-yl)(1-(cyclopropylmethyl)-2-(1-(3-hydroxypropyl)-2,3-dihydro-1H-pyrrolo[1,2,3-de]quinoxalin-5-yl)-7-methoxy-1H-benzo[d]imidazol-5-yl)methanone]		5.30 to 6.30

Now from value to compound:

pIC50 (PAD4 activity comparison, read-out: PAD4 Ammonia assay IC50)	pIC50 [1]	SMILES
5.39	5.30 to 6.30	CC1CNc2cccc3cc(-c4nc5cc(C(=O)N6CCC[C@@H](N)C6)ccc5n4C)n1c23 (stereo partly drawn) [Example 167, ((R)-3-aminopiperidin-1-yl)(1-methyl-2-(3-methyl-2,3-dihydro-1H-pyrrolo[1,2,3-de]quinoxalin-5-yl)-1H-benzo[d]imidazol-5-yl)methanone]
	6.30 to 7.00	CCC1CN(CCCOC)c2cccc3cc(-c4nc5cc(C(=O)N6C[C@H](N)C[C@@H](F)C6)cc(OC)c5n4C)n1c23 (stereo partly drawn) [Example 84, ((3R,5R)-3-amino-5-fluoropiperidin-1-yl)(2-(3-ethyl-1-(3-methoxypropyl)-2,3-dihydro-1H-pyrrolo[1,2,3-de]quinoxalin-5-yl)-7-methoxy-1-methyl-1H-benzo[d]imidazol-5-yl)methanone]
	6.30 to 7.00	CCC1C(=O)Nc2cccc3cc(-c4nc5cc(C(=O)N6C[C@H]7CC[C@@H]6[C@@H]7N)cc(F)c5n4C)n1c23 (stereo partly drawn) [Example 129, 5-(5-((1R,4R,7R)-7-amino-2-azabicyclo[2.2.1]heptane-2-carbonyl)-7-fluoro-1-methyl-1H-benzo[d]imidazol-2-yl)-3-ethyl-1H-pyrrolo[1,2,3-de]quinoxalin-2(3H)-one]
